Data from ChEMBL document CHEMBL3875146, “Mycobacterium Tuberculosis (MTB) GyrB inhibitors: An attractive approach for developing novel drugs against TB” (Eur J Med Chem, 2016).
≈ marks a conversion by molar mass, not a printed value.

Tests used:
[1] = biological target: DNA gyrase subunit A/DNA gyrase subunit B (Mycobacterium tuberculosis (strain ATCC 25618 / H37Rv), UniProt P9WG45+P9WG47); test: Inhibition of Mycobacterium tuberculosis DNA gyrase assessed as inhibition of DNA supercoiling activity using relaxed pBR322 as substrate incubated for 30 mins by ethidium bromide staining based agarose gel electrophoresis
[2] = Cytotoxicity against mouse RAW264.7 cells assessed as inhibition of cell viability at 100 uM measured after 48 hrs by MTT assay relative to control; assay type: toxicity; conditions: read-out: INH
[3] = tested on: Mycobacterium tuberculosis; test: Antimycobacterial activity against Mycobacterium tuberculosis incubated for 7 days by alamar blue assay; assay type: functional; conditions: 168 h
[4] = Cytotoxicity against mouse RAW264.7 cells assessed as inhibition of cell viability at 100 uM measured after 72 hrs by MTT assay relative to control; assay type: toxicity; conditions: read-out: INH
DNA gyrase subunit B = DNA gyrase subunit B (Mycobacterium smegmatis, UniProt P0C559); test: Inhibition of Mycobacterium smegmatis DNA gyrase B expressed in BL21(DE3)pLysS cells assessed as inhibition of […] activity in presence of ATP measured after 30 mins by malachite green dye based assay; assay type: cell-based, Mycolicibacterium smegmatis
Chain of DNA gyrase subunit B (P0C559 whole entry): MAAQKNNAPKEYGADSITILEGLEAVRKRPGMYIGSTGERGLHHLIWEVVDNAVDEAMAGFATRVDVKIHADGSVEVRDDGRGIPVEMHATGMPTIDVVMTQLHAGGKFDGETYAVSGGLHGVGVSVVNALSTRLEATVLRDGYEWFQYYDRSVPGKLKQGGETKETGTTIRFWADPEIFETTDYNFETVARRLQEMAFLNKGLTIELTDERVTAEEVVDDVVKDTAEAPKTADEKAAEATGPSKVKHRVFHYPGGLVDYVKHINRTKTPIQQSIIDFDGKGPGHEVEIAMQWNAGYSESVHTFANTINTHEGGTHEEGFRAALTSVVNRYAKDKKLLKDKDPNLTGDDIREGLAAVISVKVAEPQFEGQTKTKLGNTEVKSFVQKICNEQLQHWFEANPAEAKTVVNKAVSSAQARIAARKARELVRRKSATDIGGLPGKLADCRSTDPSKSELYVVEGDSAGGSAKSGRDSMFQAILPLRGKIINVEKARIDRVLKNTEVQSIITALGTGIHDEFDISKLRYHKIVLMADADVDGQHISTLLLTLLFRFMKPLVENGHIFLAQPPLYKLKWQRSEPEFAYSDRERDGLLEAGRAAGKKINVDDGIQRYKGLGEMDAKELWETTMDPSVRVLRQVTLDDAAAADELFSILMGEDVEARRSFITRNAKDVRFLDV

Chain of DNA gyrase subunit A/DNA gyrase subunit B (P9WG45 whole entry): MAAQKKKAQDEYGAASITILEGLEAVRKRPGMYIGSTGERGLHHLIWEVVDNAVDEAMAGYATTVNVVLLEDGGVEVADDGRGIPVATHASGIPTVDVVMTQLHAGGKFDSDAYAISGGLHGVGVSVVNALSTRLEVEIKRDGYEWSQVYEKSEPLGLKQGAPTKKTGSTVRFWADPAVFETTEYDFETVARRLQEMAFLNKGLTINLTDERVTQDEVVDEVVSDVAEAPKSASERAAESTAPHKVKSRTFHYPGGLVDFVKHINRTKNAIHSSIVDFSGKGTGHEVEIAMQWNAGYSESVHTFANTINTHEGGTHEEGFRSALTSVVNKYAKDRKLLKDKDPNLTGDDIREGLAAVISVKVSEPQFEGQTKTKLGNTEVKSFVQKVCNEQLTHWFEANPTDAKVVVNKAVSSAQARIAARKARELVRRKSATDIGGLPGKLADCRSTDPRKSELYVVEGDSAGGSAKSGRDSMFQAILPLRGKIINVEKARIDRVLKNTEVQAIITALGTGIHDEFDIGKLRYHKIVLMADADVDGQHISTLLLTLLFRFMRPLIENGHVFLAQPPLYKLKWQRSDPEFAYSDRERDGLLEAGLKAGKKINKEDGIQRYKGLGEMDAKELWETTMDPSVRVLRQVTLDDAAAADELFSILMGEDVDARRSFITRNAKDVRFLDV
Chain of DNA gyrase subunit A/DNA gyrase subunit B (P9WG47 whole entry): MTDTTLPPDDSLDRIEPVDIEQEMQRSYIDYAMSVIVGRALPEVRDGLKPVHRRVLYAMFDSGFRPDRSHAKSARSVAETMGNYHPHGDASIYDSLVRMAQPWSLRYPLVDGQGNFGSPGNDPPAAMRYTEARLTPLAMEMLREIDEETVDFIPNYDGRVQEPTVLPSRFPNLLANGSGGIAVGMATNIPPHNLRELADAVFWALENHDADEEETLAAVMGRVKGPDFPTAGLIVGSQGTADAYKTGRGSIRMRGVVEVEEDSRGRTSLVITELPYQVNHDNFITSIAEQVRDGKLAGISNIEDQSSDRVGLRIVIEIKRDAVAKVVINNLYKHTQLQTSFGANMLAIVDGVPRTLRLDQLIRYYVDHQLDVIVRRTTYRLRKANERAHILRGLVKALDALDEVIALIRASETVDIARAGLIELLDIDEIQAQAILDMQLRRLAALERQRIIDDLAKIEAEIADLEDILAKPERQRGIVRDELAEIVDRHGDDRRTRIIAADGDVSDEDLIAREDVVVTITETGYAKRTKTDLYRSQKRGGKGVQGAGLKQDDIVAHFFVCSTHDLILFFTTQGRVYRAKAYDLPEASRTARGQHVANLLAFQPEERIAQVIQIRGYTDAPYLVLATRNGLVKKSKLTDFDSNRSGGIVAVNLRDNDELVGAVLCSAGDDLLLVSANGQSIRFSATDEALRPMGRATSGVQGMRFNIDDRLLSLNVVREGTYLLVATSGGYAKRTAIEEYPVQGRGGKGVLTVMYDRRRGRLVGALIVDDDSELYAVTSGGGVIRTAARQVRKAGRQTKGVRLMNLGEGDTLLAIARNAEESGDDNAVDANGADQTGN

SMILES	IC50 [1]	cytotoxicity at 48 h, 100 µM [2]	MIC [3]	cytotoxicity at 72 h, 100 µM [4]	IC50 (DNA gyrase subunit B)
Cc1ccc(CN2CCN(c3nc(=O)c4cc(Cl)ccc4s3)CC2)cc1	21.5 µM	2.36%	24.2 µM (≈ 9.36 µg/mL)		
O=c1nc(N2CCN(C(=S)Nc3ccccc3)CC2)sc2ccc(C(F)(F)F)cc12	0.83 µM	6.48%	4.62 µM (≈ 2.08 µg/mL)		
Cc1ccc(NC(=O)N2CCN(c3nc(=O)c4cc(Cl)ccc4s3)CC2)cc1	2.62 µM	5.14%	6.02 µM (≈ 2.5 µg/mL)		
Cc1ccc(NC(=O)N2CCN(c3nc(=O)c4cc(C(F)(F)F)ccc4s3)CC2)cc1	5.26 µM	7.56%	11.5 µM (≈ 5.18 µg/mL)		
COc1ccc2c(c1)C(=O)C(=O)N2CCN1CCN(NCc2ccccc2OC)CC1	48.6 µM			15.4%	81.2 µM
Cc1ccc(NC(=S)N2CCN(c3nc(=O)c4cc([N+](=O)[O-])ccc4s3)CC2)cc1	0.82 µM	4.22%	2.83 µM (≈ 1.25 µg/mL)		
O=c1nc(N2CCN(Cc3ccc([N+](=O)[O-])cc3)CC2)sc2ccc([N+](=O)[O-])cc12	4.21 µM	21.4%	7.31 µM (≈ 3.12 µg/mL)		
O=c1nc(N2CCN(C(=S)Nc3ccc(Cl)cc3)CC2)sc2ccc(C(F)(F)F)cc12	4.23 µM	3.15%	8.59 µM (≈ 4.17 µg/mL)		
Cc1ccc2c(c1)C(=O)C(=O)N2CCN1CCN(NCc2ccccc2C(F)(F)F)CC1	> 50 µM			13.6%	
Cc1ccc2c(c1)C(=O)C(=O)N2CCN1CCN(NCc2ccccc2)CC1	> 50 µM			19.7%	
O=c1nc(N2CCN(Cc3ccccc3)CC2)sc2ccc([N+](=O)[O-])cc12	3.21 µM	5.41%	4.08 µM (≈ 1.56 µg/mL)		
COc1ccccc1CNN1CCN(CCN2C(=O)C(=O)c3cc(F)ccc32)CC1	> 50 µM			19.1%	
O=c1nc(N2CCN(C(=S)Nc3ccccc3)CC2)sc2ccc([N+](=O)[O-])cc12	0.77 µM	3.25%	1.82 µM (≈ 0.778 µg/mL)		
O=c1nc(N2CCN(C(=S)Nc3ccc([N+](=O)[O-])cc3)CC2)sc2ccc(Cl)cc12	6.23 µM	1.45%	13.5 µM (≈ 6.25 µg/mL)		
Cc1ccc(NC(=O)N2CCN(c3nc(=O)c4cc([N+](=O)[O-])ccc4s3)CC2)cc1	9.62 µM	16.2%	14.7 µM (≈ 6.25 µg/mL)		
O=C(Nc1ccc(Cl)cc1)N1CCN(c2nc(=O)c3cc(Cl)ccc3s2)CC1	10.5 µM	2.56%	17.9 µM (≈ 7.8 µg/mL)		
O=C(Nc1ccccc1)N1CCN(c2nc(=O)c3cc([N+](=O)[O-])ccc3s2)CC1	16.8 µM		30.4 µM (≈ 12.5 µg/mL)		
O=c1nc(N2CCN(Cc3ccc(Cl)cc3)CC2)sc2ccc(C(F)(F)F)cc12	3.86 µM	8.45%	6.31 µM (≈ 2.78 µg/mL)		
O=c1nc(N2CCN(Cc3ccccc3)CC2)sc2ccc(Cl)cc12	17.6 µM		33.6 µM (≈ 12.5 µg/mL)		
O=C1C(=O)N(CCN2CCN(NCc3ccccc3)CC2)c2ccc(Cl)cc21	> 50 µM			22.3%	
COc1ccc2c(c1)C(=O)C(=O)N2CCN1CCN(NCc2ccc([N+](=O)[O-])o2)CC1	> 50 µM			31.6%	
O=c1nc(N2CCN(Cc3ccc([N+](=O)[O-])cc3)CC2)sc2ccc(Cl)cc12	7.33 µM	5.48%	15 µM (≈ 6.25 µg/mL)		
Cc1ccc(CN2CCN(c3nc(=O)c4cc([N+](=O)[O-])ccc4s3)CC2)cc1	8.93 µM	26.5%	15.8 µM (≈ 6.25 µg/mL)		
O=C(Nc1ccc(Cl)cc1)N1CCN(c2nc(=O)c3cc(C(F)(F)F)ccc3s2)CC1	10.5 µM	10.2%	13.3 µM (≈ 6.25 µg/mL)		
O=C(Nc1ccccc1)N1CCN(c2nc(=O)c3cc(Cl)ccc3s2)CC1	17.5 µM	16.5%	15.6 µM (≈ 6.25 µg/mL)		
O=C1C(=O)N(CCN2CCN(NCc3ccccc3F)CC2)c2ccc(Cl)cc21	> 50 µM			17.6%	

SMILES	IC50 [1]	cytotoxicity at 48 h, 100 µM [2]	MIC [3]	cytotoxicity at 72 h, 100 µM [4]	IC50 (DNA gyrase subunit B)
O=c1nc(N2CCN(Cc3ccc(Cl)cc3)CC2)sc2ccc(Cl)cc12	12.1 µM	5.36%	15.4 µM (≈ 6.25 µg/mL)		
O=C1C(=O)N(CCN2CCN(NCc3ccccc3)CC2)c2ccc(F)cc21	> 50 µM			29.3%	
O=c1nc(N2CCN(C(=S)Nc3ccc([N+](=O)[O-])cc3)CC2)sc2ccc(C(F)(F)F)cc12	2.16 µM	5.48%	5.04 µM (≈ 2.5 µg/mL)		
CO[C@@H]1[C@@H](OC(N)=O)[C@@H](O)[C@H](Oc2ccc3c(O)c(NC(=O)c4ccc(O)c(CC=C(C)C)c4)c(=O)oc3c2C)OC1(C)C [NOVOBIOCIN]		7.56%	> 200 µM		
O=c1nc(N2CCN(C(=S)Nc3ccc([N+](=O)[O-])cc3)CC2)sc2ccc([N+](=O)[O-])cc12	2.59 µM	2.21%	5.29 µM (≈ 2.5 µg/mL)		
O=C(Nc1ccc(Cl)cc1)N1CCN(c2nc(=O)c3cc([N+](=O)[O-])ccc3s2)CC1	23.7 µM		28 µM (≈ 12.5 µg/mL)		
Cc1ccc(NC(=S)N2CCN(c3nc(=O)c4cc(Cl)ccc4s3)CC2)cc1	11.6 µM	2.48%	14.5 µM (≈ 6.25 µg/mL)		
O=C(Nc1ccc([N+](=O)[O-])cc1)N1CCN(c2nc(=O)c3cc(Cl)ccc3s2)CC1	4.61 µM	3.56%	5.24 µM (≈ 2.34 µg/mL)		
O=c1nc(N2CCN(Cc3ccccc3)CC2)sc2ccc(C(F)(F)F)cc12	11.5 µM		15.4 µM (≈ 6.25 µg/mL)		
COc1ccccc1CNN1CCN(CCN2C(=O)C(=O)c3ccccc32)CC1	> 50 µM			21.3%	
Cc1ccc2c(c1)C(=O)C(=O)N2CCN1CCN(NCc2ccc([N+](=O)[O-])o2)CC1	> 50 µM			27.8%	
Cc1ccc(NC(=S)N2CCN(c3nc(=O)c4cc(C(F)(F)F)ccc4s3)CC2)cc1	4.51 µM	16.4%	9.54 µM (≈ 4.43 µg/mL)		
O=C(Nc1ccccc1)N1CCN(c2nc(=O)c3cc(C(F)(F)F)ccc3s2)CC1	11 µM		19.2 µM (≈ 8.33 µg/mL)		
O=c1nc(N2CCN(C(=S)Nc3ccccc3)CC2)sc2ccc(Cl)cc12	10.9 µM	2.35%	11.2 µM (≈ 4.68 µg/mL)		
Cc1ccc(CN2CCN(c3nc(=O)c4cc(C(F)(F)F)ccc4s3)CC2)cc1	11.6 µM	18.6%	16.7 µM (≈ 7.02 µg/mL)		
O=C(Nc1ccc([N+](=O)[O-])cc1)N1CCN(c2nc(=O)c3cc([N+](=O)[O-])ccc3s2)CC1	9.11 µM	15.2%	13.7 µM (≈ 6.24 µg/mL)		
COc1ccc2c(c1)C(=O)C(=O)N2CCN1CCN(NCc2ccccc2F)CC1	> 50 µM			16.3%	
O=c1nc(N2CCN(Cc3ccc([N+](=O)[O-])cc3)CC2)sc2ccc(C(F)(F)F)cc12	4.55 µM	14.6%	5.19 µM (≈ 2.34 µg/mL)		
O=C1C(=O)N(CCN2CCN(NCc3ccccc3)CC2)c2ccccc21	> 50 µM			7.6%	
O=C(Nc1ccc([N+](=O)[O-])cc1)N1CCN(c2nc(=O)c3cc(C(F)(F)F)ccc3s2)CC1	26.5 µM		52.1 µM (≈ 25 µg/mL)		
O=C1C(=O)N(CCN2CCN(NCc3ccc([N+](=O)[O-])o3)CC2)c2ccc(F)cc21	> 50 µM			37.8%	
O=C1C(=O)N(CCN2CCN(NCc3cccc(Cl)c3Cl)CC2)c2ccc(F)cc21	> 50 µM			31.2%	
O=c1nc(N2CCN(Cc3ccc(Cl)cc3)CC2)sc2ccc([N+](=O)[O-])cc12	3.68 µM	1.56%	5.99 µM (≈ 2.5 µg/mL)		
O=c1nc(N2CCN(C(=S)Nc3ccc(Cl)cc3)CC2)sc2ccc([N+](=O)[O-])cc12	0.51 µM	1.81%	4.41 µM (≈ 2.04 µg/mL)		
O=c1nc(N2CCN(C(=S)Nc3ccc(Cl)cc3)CC2)sc2ccc(Cl)cc12	6.86 µM	25.6%	6.92 µM (≈ 3.12 µg/mL)		
